Test results from patent US7060697B2, “Immunosuppressant compounds and compositions” (IRM LLC, priority 2003, dated 2006).

Assays:
human EDG-1 = target: T1, human EDG-1 (Homo sapiens, UniProt P21453); assay: GPCR activation assay measuring GTP [γ-35S] binding to membranes from CHO cells expressing human EDG receptors; format: biochemical
T1 construct: c-myc (N); expressed in transfected cells; homogenized membranes
Procedure: A. In vitro: GPCR Activation Assay Measuring GTP [γ-^35S] Binding to Membranes Prepared from CHO Cells Expressing Human EDG Receptors
EDG-1 (S1P1) GTP [γ-^35S] binding assay: Homogenized membranes are prepared from CHO cell clones stably expressing a human EDG-1 N-terminal c-myc tag. Cells are grown in suspension in two 850 cm^2 roller bottles for three or fours days before harvesting. The cells are centrifuged down, washed once with cold PBS, and resuspended in ≦20 ml of Buffer A (20 mM HEPES, pH 7.4, 10 mM EDTA, EDTA-free complete protease inhibitor cocktail [1 tablet/25 ml]). The cell suspension is homogenized on ice, using a Polytron homogenizer at 30000 rpm at three intervals of 15 seconds each. The homogenate is first centrifuged at 2000 rpm on a tabletop low speed centrifuge for 10 minutes. The supernatant, after passing through a cell strainer, is then re-centrifuged at 50,000×g for 25 minutes at 4° C. The pellet is resuspended into buffer B (15% glycerol, 20 mM HEPES, pH 7.4, 0.1 mM EDTA, EDTA-free complete protease inhibitor cocktail [1 tablet/10 ml]). Protein concentration of the prep is determined using the BCA Protein Assay kit (Pierce) using BSA as standard. The membranes are aliquoted and kept frozen at −80° C.
Solutions of test compounds ranging from 10 mM to 0.01 nM are prepared in DMSO. S1P is diluted in 4% BSA solution as positive controls. […]

blood lymphocytes = assay: Measurement of circulating lymphocytes (blood lymphocyte depletion); format: in vivo, Rats (C57b1/6 male); settings: Rattus norvegicus, oral gavage, blood collected 6 and 24 hours after administration, read-out: ED50 (effective dose required displaying 50% of blood lymphocyte depletion)
Procedure: C. In vivo: Screening Assays for Measurement of Blood Lymphocyte Depletion and Assessment of Heart Effect
Measurement of circulating lymphocytes: Compounds are dissolved in DMSO and diluted to obtain a final concentration of 4% DMSO (v/v, final concentration) and then further diluted in a constant volume of Tween80 25%/H2O, v/v. Tween80 25%/H2O (200 μl), 4% DMSO, and FTY720 (10 μg) are included as negative and positive controls, respectively. Rats (C57b1/6 male, 6–10 week-old) are administered 250–300 μL of compound solution orally by gavages under short isoflurane anesthesia.
Blood is collected from the retro-orbital sinus 6 and 24 hours after drug administration under short isoflurane anesthesia. Whole blood samples are subjected to hematology analysis. Peripheral lymphocyte counts are determined using an automated analyzer. Subpopulations of peripheral blood lymphocytes are stained by fluorochrome-conjugated specific antibodies and analyzed using a fluorescent activating cell sorter (Facscalibur). Two rats are used to assess the lymphocyte depletion activity of each compound screened. The result is an ED50, which is defined as the effective dose required displaying 50% of blood lymphocyte depletion.

T1 sequence (P21453 whole entry): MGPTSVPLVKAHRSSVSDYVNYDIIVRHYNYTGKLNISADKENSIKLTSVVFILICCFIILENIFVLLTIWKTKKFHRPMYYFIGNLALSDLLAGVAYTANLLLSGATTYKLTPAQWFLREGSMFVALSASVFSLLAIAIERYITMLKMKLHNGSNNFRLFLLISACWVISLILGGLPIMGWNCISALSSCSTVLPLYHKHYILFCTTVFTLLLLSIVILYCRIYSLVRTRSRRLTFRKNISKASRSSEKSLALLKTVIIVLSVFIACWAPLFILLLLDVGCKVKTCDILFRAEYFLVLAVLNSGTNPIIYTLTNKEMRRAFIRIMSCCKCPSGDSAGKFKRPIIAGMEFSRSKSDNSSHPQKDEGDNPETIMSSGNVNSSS

SMILES: O=C(O)C1CN(Cc2ccc(SCc3ccc(-c4ccccc4)c(C(F)(F)F)c3)cc2)C1 [Compound 9, 1-[4-(2-trifluoromethyl-biphenyl-4-ylmethylsulfanyl)-benzyl]-azetidine-3-carboxylic acid]
- EC50 (human EDG-1; EDG-1 (S1P1) GTP [γ-35S] binding, CHO cell membranes): 0.82 nM
- selectivity for EDG-1 compared to one or more of the other receptors including EDG-3, EDG-5, EDG-6 and EDG-8 (human EDG-1; GTP [γ-35S] binding assays): at least 1000 fold
- ED50 (blood lymphocytes): < 0.1 mg/kg
